Reference: patent publication US20250099407A1, “2-AMINO BENZOPHENONE DERIVATIVES FOR TARGETED FERROPTOSIS INDUCTION IN CANCER THERAPY” (INDIAN INSTITUTE OF TECHNOLOGY KANPUR, priority 2023, published 2025)

System: Huh-7 cells
Assay: Combination cell viability experiments with thiols, ferroptosis modulators and cell death inhibitors in Huh-7 cells
Format: cell-based
Details: for cell death mechanism from combination experiments: combination with GSH, NAC, BSO, Fer-1, deferoxamine, RSL3, FIN56, Erastin, QVD-OPh, necrostatin-1, Huh-7 and 4T1; for reduction in potency by N-acetylcysteine (NAC) and GSH: 500 μM NAC or glutathione in combination; for effect of erastin addition on antiproliferative activity: Erastin 0.5 μM, relatively non-toxic concentration; for effect of apoptosis (QVD-OPh) and necrosis (Necrostatin-1) inhibitors on antiproliferative activity: QVD-OPh and Necrostatin-1 10 μM
Procedure: FIG. 14 depicts a combination experiment indicates the involvement of thiol modulation by IITK3001/IITK3002 on the viability of Huh-7 and 4T1 cells, in accordance with an embodiment of the present invention. The viability of screened cancer cells was recorded using a luminescence-based CellTiter-Glo® assay for the ATP quantification. The screening concentration of (a) IITK3001 and (b) IITK3002 ranged from 10 uM to 4.5 nM with an 8-point-3-fold dilution series in DMEM medium (>0.1% DMSO as control). For combination experiments, 500 μM of NAC or glutathione and 25 μM of BSO were used. Each experiment was conducted in more than two biological replicates with three technical replicates. The error bar is a representation of standard deviation among the technical replicates.
(§1) FIG. 16 depicts ferroptosis induction as a cell death mechanism is established for IITK3001 using combination experiments with ferroptosis inducers and inhibitors, in accordance with an embodiment of the present invention. The screening concentration of (a) IITK3001 and (b) IITK3002 ranged from 10 μM to 4.5 nM with an 8-point-3-fold dilution series in DMEM medium (>0.1% DMSO as control). For combination experiments, Ferrostain-1 (10 μM),Deferoxamine (3 μM), RSL3 (10 nM), FIN56 (30 nM), glutamine (0.5 mM), glutamic acid (0.5 mM), Erastin (0.5 μM) were used. Each experiment was conducted in more than two biological replicates with three technical replicates. The error bar is a representation of standard deviation among the technical replicates.
as §1, with “18” for “16”, “IITK3002” for “IITK3001”, “of” for “of (a) IITK3001 and (b)”, “μM), Deferoxamine” for “μM),Deferoxamine”
FIG. 20 depicts combining apoptosis and necroptosis inhibitors ruled out the possibility of respective cell death mechanisms upon treatment with IITK3001 or IITK3002 in Huh-7 and 4T1 cells, in accordance with an embodiment of the present invention. The screening concentration of IITK3001/IITK3002 ranged from 10 μM to 4.5 nM with an 8-point-3-fold dilution series in DMEM medium (>0.1% DMSO as control). For combination experiments, QVD-OPh and Necrsotatin-1 (10 μM) were used. Each experiment was conducted in more than two biological replicates with three technical replicates. The error bar is a representation of standard deviation among the technical replicates.
FIG. 22 depicts ferroptosis induction was established for IITK3003 using combination experiments in Huh-7 cells, in accordance with an embodiment of the present invention. The screening concentration of IITK3002 ranged from 10 uM to 4.5 nM with an 8-point-3-fold dilution series in DMEM medium (>0.1% DMSO as control). For combination experiments, Ferrostain-1 ([…]), Deferoxamine (3 μM), RSL3 (10 nM), FIN56 (30 nM), glutamine (0.5 mM), glutamic acid (0.5 mM), Erastin (0.5 μM) were used. Each experiment was conducted in more than two biological replicates with three technical replicates. The error bar is a representation of standard deviation among the technical replicates.
FIG. 24 depicts ferroptosis induction was established for IITK3004 using combination experiments in Huh-7 cells, in accordance with an embodiment of the present invention. The screening concentration of the molecules (a) IITK3001 and (b) IITK3002 ranged from 10 μM to 4.5 nM with a 8-point-3-fold dilution series. […]

## C#CCN(C(=O)CCl)c1ccccc1C(=O)c1ccccc1 [IITK3003, N-(2-benzoylphenyl)-2-chloro-N-(prop-2-yn-1-yl)acetamide]
  cell death mechanism from combination experiments: exceptionally selective ferroptosis inducers

## CN(C(=O)CCl)c1ccccc1C(=O)c1ccccc1 [IITK3001, N-(2-benzoylphenyl)-2-chloro-N-methylacetamide]
  reduction in potency by N-acetylcysteine (NAC) and GSH: > 1000 fold
  effect of erastin addition on antiproliferative activity: no effect
  effect of apoptosis (QVD-OPh) and necrosis (Necrostatin-1) inhibitors on antiproliferative activity: no apparent deviation
  cell death mechanism from combination experiments: ferroptosis

## CN(C(=O)CBr)c1ccccc1C(=O)c1ccccc1 [IITK3002, N-(2-benzoylphenyl)-2-bromo-N-methylacetamide]
  reduction in potency by N-acetylcysteine (NAC) and GSH: > 500 fold
  effect of erastin addition on antiproliferative activity: no effect
  effect of apoptosis (QVD-OPh) and necrosis (Necrostatin-1) inhibitors on antiproliferative activity: no apparent deviation
  cell death mechanism from combination experiments: ferroptosis
